This note sets out measurements from patent US10858365B2, “Triazolo-pyrimidine compounds and uses thereof” (Dizal (Jiangsu) Pharmaceutical Co., Ltd., priority 2018, dated 2020).

Where only a bound is given, the exact number is not on record here.

For orientation: IC50 means the concentration that inhibits the measured activity by half.

One assay deals with hA2b (Homo sapiens (Human), UniProt P29275). Description: cAMP inhibition assay in hA2b/CHO cells. It is filed as cell-based. The note with it: adenosine stimulation, read-out: cAMP & FLIPR IC50 (nM) hA2b. As to the method:
(§1) hA2a/CHO, hA2b/CHO and mA2a/CHO (Genscript) were plated at 5×10^3 cells/well into 384-well polystyrene plates at the day of experiment. Compounds were pre-incubated with cells for 30 min at 37° C., 5% CO2. Then […] adenosine was added to the cells and incubated for 30 min at 37° C., 5% CO2. Detection reagent (CISBIO) was added and the plates were incubated for 60 min at room temperature. The signal was captured by Envision.

Assay [1] has as its target T1, hA1 (Homo sapiens (Human), UniProt P30542). Kind of assay: FLIPR inhibition assay in hADORA1/CHO (hA1 expressing) cells. It is filed as cell-based. Conditions: hADORA1/CHO cells, FLIPR calcium, adenosine stimulation; read-out: cAMP & FLIPR IC50 (nM) hA1. In a few lines:
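CHO cells expressing human A1 were plated at 1×10^4 cells/well the day before, then loaded with FLIPR Calcium 5 dye for 60 min at 37 °C, 5% CO2. Compounds were added at several concentrations for 400 s before stimulation with […] adenosine. The calcium signal was recorded by FLIPR.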

The target of a further assay is hA3 (Homo sapiens (Human), UniProt P0DMS8). Description: cAMP & FLIPR inhibition, hA3 over-expressing cell line. It is filed as cell-based. From the text:
FLIPR™ and cAMP inhibition activities of exemplary compounds in different adenosine receptor over-expressing cell lines are shown in Table 4 below.

For a further assay, the target named is mA2a (Mus musculus (Mouse), UniProt Q60613). Description: cAMP inhibition assay in mA2a/CHO cells. It is filed as cell-based. Conditions: adenosine stimulation, read-out: cAMP & FLIPR IC50 (nM) mA2a. As to the method: as §1
Assay [2] has as its target T2, hA2a (Homo sapiens (Human), UniProt P29274). Description: cAMP inhibition assay in hA2a/CHO cells. Conditions: adenosine stimulation, read-out: cAMP & FLIPR IC50 (nM) hA2a. It is filed as cell-based. In a few lines:
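CHO cells expressing human A2a, human A2b or mouse A2a, 5×10^3 cells/well, pre-incubated with compound 30 min at 37 °C, then stimulated with […] adenosine 30 min at 37 °C. cAMP read after 60 min room-temperature incubation with detection reagent.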

Assay [3] deals with T1, hA1. Kind of assay: Radioligand binding to hA1 membrane ([3H]-DPCPX). Conditions: 50 min at 25° C., read-out: Binding Affinity (IC50 nM) hA1. As to the method:
(§2) Binding affinity and specificities of the compounds against different subtype of human adenosine receptors (hA1, hA2A, hA2B and hA3) were characterized with cell membrane chromatography binding analysis.
The compounds at different concentrations were incubate with hA1 membrane (from PerkinElmer) and [^3H]-8-Cyclopentyl-1,3-dipropylxanthine (DPCPX) for 50 min at 25° C., meanwhile 100 μL 0.5% PEI solution was added into […]-96 GF/B filter plate for 60 min at 4° C., then […]-96 GF/B filter plate was washed twice with 50 ml wash buffer, the membrane mix was transferred into […]-96 GF/B filter plate, and the filter plate was washed 4 times before incubated at 55° C. for 10 min. At last, […] ULTIMA GOLD was added into each well, and CPM was read by TopCount.
(§3) The empty boxes in the tables below indicate data not available.

The target of assay [4] is T2, hA2a. Description: Radioligand binding to hA2a membrane ([3H]-CGS21680). The note with it: [3H]-CGS21680, 90 min at 25° C., read-out: Binding Affinity (IC50 nM) hA2a. As to the method: as §2
The compounds at different concentrations were incubate with hA2a membrane (from PerkinElmer) and [^3H]-CGS21680 for 90 min at 25° C., meanwhile 100 μL 0.5% PEI solution was added into […]-96 GF/B filter plate for 60 min at 4° C., then […]-96 GF/B filter plate was washed twice with 50 ml wash buffer, the membrane mix was transferred into […]-96 GF/B filter plate, and the filter plate was washed 4 times before incubated at 55° C. for 10 min. At last, […] ULTIMA GOLD was added into each well, and CPM was read by TopCount.
as §3

T1 sequence (P30542 whole entry): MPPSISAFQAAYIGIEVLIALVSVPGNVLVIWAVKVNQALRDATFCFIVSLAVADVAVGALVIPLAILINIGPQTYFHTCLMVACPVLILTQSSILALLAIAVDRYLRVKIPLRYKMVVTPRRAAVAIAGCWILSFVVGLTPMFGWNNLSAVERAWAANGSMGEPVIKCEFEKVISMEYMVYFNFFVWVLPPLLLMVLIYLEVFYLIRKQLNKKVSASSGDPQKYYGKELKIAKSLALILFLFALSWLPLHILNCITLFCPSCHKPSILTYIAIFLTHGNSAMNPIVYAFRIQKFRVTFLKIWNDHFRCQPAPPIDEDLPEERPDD
Chain of hA3 (P0DMS8 whole entry): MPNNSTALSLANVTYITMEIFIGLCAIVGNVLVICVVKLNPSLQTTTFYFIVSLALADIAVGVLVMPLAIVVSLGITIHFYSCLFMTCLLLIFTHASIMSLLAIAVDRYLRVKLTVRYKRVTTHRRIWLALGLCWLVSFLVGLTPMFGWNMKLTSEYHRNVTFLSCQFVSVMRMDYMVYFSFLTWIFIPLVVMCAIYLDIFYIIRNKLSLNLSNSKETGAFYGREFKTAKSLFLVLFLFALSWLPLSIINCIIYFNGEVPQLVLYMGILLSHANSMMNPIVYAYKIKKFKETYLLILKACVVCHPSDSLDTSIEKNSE
Chain of hA2b (P29275 whole entry): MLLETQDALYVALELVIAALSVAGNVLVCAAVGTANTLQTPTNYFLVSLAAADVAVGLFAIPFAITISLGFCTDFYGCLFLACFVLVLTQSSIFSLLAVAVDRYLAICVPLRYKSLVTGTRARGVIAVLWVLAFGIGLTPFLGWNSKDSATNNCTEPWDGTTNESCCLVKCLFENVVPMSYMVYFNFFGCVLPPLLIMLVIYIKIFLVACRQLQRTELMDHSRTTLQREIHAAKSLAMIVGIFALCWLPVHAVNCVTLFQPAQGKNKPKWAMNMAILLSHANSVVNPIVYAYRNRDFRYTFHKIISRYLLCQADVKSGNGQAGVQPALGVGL
Chain of mA2a (Q60613 whole entry): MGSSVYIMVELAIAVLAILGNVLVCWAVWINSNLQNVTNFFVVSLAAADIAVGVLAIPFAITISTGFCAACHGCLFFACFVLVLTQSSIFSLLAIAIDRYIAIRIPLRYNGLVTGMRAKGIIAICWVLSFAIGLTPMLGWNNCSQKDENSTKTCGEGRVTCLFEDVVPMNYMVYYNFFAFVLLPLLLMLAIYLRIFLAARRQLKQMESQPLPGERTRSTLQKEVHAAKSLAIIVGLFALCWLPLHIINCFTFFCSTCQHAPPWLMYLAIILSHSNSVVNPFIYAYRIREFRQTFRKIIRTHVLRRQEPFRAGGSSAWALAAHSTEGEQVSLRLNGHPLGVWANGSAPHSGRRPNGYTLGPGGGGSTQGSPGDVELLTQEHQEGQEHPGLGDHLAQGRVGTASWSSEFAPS
T2 sequence (P29274 whole entry): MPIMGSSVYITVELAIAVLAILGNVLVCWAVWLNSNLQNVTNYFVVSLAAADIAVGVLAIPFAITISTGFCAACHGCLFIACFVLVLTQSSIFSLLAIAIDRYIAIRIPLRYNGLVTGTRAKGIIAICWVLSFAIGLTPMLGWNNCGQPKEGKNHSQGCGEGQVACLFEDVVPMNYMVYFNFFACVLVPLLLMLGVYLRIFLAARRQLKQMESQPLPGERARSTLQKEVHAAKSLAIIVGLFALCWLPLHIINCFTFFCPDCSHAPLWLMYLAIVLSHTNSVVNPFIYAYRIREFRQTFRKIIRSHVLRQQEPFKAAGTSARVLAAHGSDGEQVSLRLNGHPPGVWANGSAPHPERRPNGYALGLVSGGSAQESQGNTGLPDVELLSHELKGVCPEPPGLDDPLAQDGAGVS

For `Cc1cc(-c2c(-c3ccc(F)cc3)nc(N)n3nc(Cc4ncccc4F)nc23)ccn1` [Example 2, 7-(4-fluorophenyl)-2-((3-fluoropyridin-2-yl)methyl)-8-(2-methylpyridin-4-yl)-[l,2,4]triazolo[l,5-c]pyrmidin-5-amine], the IC50 at hA2b was 73 nM; at hA1 [1] it was 23 nM; on hA3 it was greater than 10000 nM; on mA2a it was 59 nM; on hA2a [2] it was 59 nM.
With `Nc1nc(-c2ccc(F)cc2)c(-c2ccnc(Cl)c2)c2nc(Cc3ncccc3F)nn12` [Example 3, 8-(2-chloropyridin-4-yl)-7-(4-fluorophenyl)-2-((3-fluoropyridin-2-yl)methyl)-[1,2,4]triazolo[1,5-c]pyrmidin-5-amine], the IC50 was 65 nM on hA2b; 42 nM at hA1 [1]; greater than 10000 nM against hA3; 70 nM on mA2a; 56 nM at hA2a [2].
The like results for `Nc1nc(-c2ccc(F)cc2)c(-c2ccnnc2)c2nc(Cc3c(F)cccc3F)nn12` [Example 6, 2-(2,6-difluorobenzyl)-7-(4-fluorophenyl)-8-(pyridazin-4-yl)-[1,2,4]triazolo[1,5-c]pyrimidin-5-amine] were, in that order, 17 nM, 21 nM, greater than 10000 nM, 182 nM and 63 nM.
The like results for `Cc1cc(-c2c(-c3ccc(F)cc3)nc(N)n3nc(Cc4cscn4)nc23)ccn1` [Example 7, 7-(4-fluorophenyl)-8-(2-methylpyridin-4-yl)-2-[(1,3-thiazol-4-yl)methyl]-[1,2,4]triazolo[1,5-c]pyrimidin-5-amine] were, in that order, 1600 nM, 23 nM, greater than 10000 nM, 209 nM and 102 nM.
The like results for `Cc1cc(-c2c(-c3ccc(F)cc3)nc(N)n3nc(Cc4cccc(Cl)c4)nc23)ccn1` [Example 8, 2-[(3-chlorophenyl)methyl]-7-(4-fluorophenyl)-8-(2-methylpyridin-4-yl)-[1,2,4]triazolo[1,5-c]pyrimidin-5-amine] were, in that order, 2950 nM, 162 nM, greater than 10000 nM, 98 nM and 59 nM.
As for `Cc1cc(-c2c(-c3ccc(F)cc3)nc(N)n3nc(Cc4nccs4)nc23)ccn1` [Example 11, 7-(4-fluorophenyl)-8-(2-methylpyridin-4-yl)-2-(thiazol-2-ylmethyl)-[1,2,4]triazolo[1,5-c]pyrimidin-5-amine], the IC50 on hA2b is 219 nM; at hA1 [1] it was 9.7 nM; against hA3 it was greater than 10000 nM; at mA2a, 78 nM; on hA2a [2], 34 nM.
Take `Cc1cc(-c2c(-c3ccc(F)cc3)nc(N)n3nc(C(C)c4c(F)cccc4F)nc23)ccn1` (centres unmarked) [Example 12, 2-[1-(2,6-difluorophenyl)ethyl]-7-(4-fluorophenyl)-8-(2-methylpyridin-4-yl)-[1,2,4]triazolo[1,5-c]pyrimidin-5-amine]: the IC50 at hA2b is 5000 nM; on hA1 [1], 214 nM; on hA3, greater than 10000 nM; on mA2a it was 316 nM; at hA2a [2] it was 46 nM.
Turning to `COc1ccc(-c2nc(N)n3nc(Cc4ncccc4F)nc3c2-c2ccc(=O)n(C)c2)cc1` [Example 61, 5-(5-amino-2-((3-fluoropyridin-2-yl)methyl)-7-(4-methoxyphenyl)-[1,2,4]triazolo[1,5-c]pyrimidin-8-yl)-1-methylpyridin-2(1H)-one], the IC50 on hA2b was 122 nM; at hA1 [3] it was 1.7 nM; at hA1 [1], 25 nM; on mA2a it was 42 nM; on hA2a [2] it was 28 nM; at hA2a [4], 4.2 nM.
`Cn1cc(-c2c(-c3ccc(C(F)(F)F)cc3)nc(N)n3nc(Cc4ncccc4F)nc23)ccc1=O` [Example 62, 5-(5-amino-2-((3-fluoropyridin-2-yl)methyl)-7-(4-(trifluoromethyl)phenyl)-[l,2,4]triazolo[l,5-c]pyrimidin-8-yl)-l-methylpyridin-2(1H)-one]: the IC50 is 602 nM at hA2b; 5.1 nM on hA1 [3]; 27 nM on hA1 [1]; 318 nM at mA2a; 184 nM at hA2a [2]; 5.2 nM on hA2a [4].
Regarding `Cc1c(-c2c(-c3ccc(F)cc3)nc(N)n3nc(Cc4ncccc4F)nc23)ccc(=O)n1C` [Example 66, 5-(5-amino-7-(4-fluorophenyl)-2-((3-fluoropyridin-2-yl)methyl)-[1,2,4]triazolo[1,5-c]pyrimidin-8-yl)-1,6-dimethylpyridin-2(1H)-one], the IC50 on hA2b stood at 109 nM; at hA1 [3] it was 46 nM; on hA1 [1], 69 nM; at mA2a it was 346 nM; at hA2a [2], 31 nM; on hA2a [4], 7.2 nM.
As for `Cn1cc(-c2c(-c3cccc(Cl)c3)nc(N)n3nc(Cc4ncccc4F)nc23)ccc1=O` [Example 70, 5-(5-amino-7-(3-chlorophenyl)-2-((3-fluoropyridin-2-yl)methyl)-[1,2,4]triazolo[1,5-c]pyrimidin-8-yl)-l-methylpyridin-2(lH)-one], the IC50 on hA2b was determined as 68 nM; on hA1 [3], 0.8 nM; at hA1 [1], 14 nM; on mA2a, 13 nM; on hA2a [2] it was 5.5 nM; on hA2a [4], 4.1 nM.
On to `COc1cccc(-c2nc(N)n3nc(Cc4ncccc4F)nc3c2-c2ccc(=O)n(C)c2)c1` [Example 77, 5-(5-amino-2-((3-fluoropyridin-2-yl)methyl)-7-(3-methoxyphenyl)-[1,2,4]triazolo[1,5-c]pyrimidin-8-yl)-1-methylpyridin-2(1H)-one], for which the IC50 was 51 nM at hA2b; 1.4 nM at hA1 [3]; 13 nM at hA1 [1]; 17 nM on mA2a; 6.7 nM at hA2a [2]; 3.6 nM at hA2a [4].
In the case of `Nc1nc(-c2ncco2)c(-c2ccnc(OC(F)F)c2)c2nc(Cc3c(F)cccc3F)nn12` [Example 85, 2-(2,6-difluorobenzyl)-8-(2-(difluoromethoxy)pyridin-4-yl)-7-(oxazol-2-yl)-[1,2,4]triazolo[1,5-c] pyrimidin-5-amine], the IC50 was 48 nM at hA2b; 5.4 nM on hA1 [3]; 27 nM on hA1 [1]; 11 nM at mA2a; 15 nM on hA2a [2]; 5.5 nM at hA2a [4].
With `Nc1nc(-c2ncco2)c(-c2ccnc(OC(F)F)c2)c2nc(Cc3ncccc3F)nn12` [Example 86, 8-(2-(difluoromethoxy)pyridin-4-yl)-2-((3-fluoropyridin-2-yl)methyl)-7-(oxazol-2-yl)-[1,2,4]triaz olo[1,5-c]pyrimidin-5-amine], the IC50 was found to be 83 nM on hA2b; 21 nM at hA1 [3]; 59 nM at hA1 [1]; 48 nM on mA2a; 71 nM at hA2a [2]; 8.3 nM at hA2a [4].
Consider `Nc1nc(-n2nccn2)c(-c2ccc3nccn3c2)c2nc(Cc3ncccc3F)nn12` [Example 94, 2-[(3-fluoropyridin-2-yl)methyl]-8-[imidazo[1,2-a]pyridin-6-yl]-7-(2H-1,2,3-triazol-2-yl)-[1,2,4]triazolo[1,5-c]pyrimidin-5-amine], for which the IC50 at hA2b is 94 nM; at hA1 [3], 52 nM; at hA1 [1], 41 nM; on mA2a it was 20 nM; on hA2a [2], 7.7 nM; at hA2a [4], 3.5 nM.
